17 compounds from US12291518B2, “Thyroid hormone receptor agonists and use thereof” (Eccogene Inc., priority 2020, dated 2025) can be followed below.

One test addresses T1, THR beta-LBD (Homo sapiens, UniProt P10828).
T1 construct: THR beta-LBD (the final concentration is 0.5 nM) was added to the 384-well assay plate; purchased Invitrogen PV4686
T1 sequence (P10828 217-461 limits assumed): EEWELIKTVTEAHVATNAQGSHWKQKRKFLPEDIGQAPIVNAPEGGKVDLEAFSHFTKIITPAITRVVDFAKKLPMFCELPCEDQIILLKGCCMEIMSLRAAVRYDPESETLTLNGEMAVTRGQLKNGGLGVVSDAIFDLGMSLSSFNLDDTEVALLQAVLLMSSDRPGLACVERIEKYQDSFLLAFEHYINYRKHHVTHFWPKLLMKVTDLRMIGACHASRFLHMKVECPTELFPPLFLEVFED
Nature of the test: THR-β Coactivator Peptide Recruitment Assay (LanthaScreen TR-FRET). Type of test: biochemical. The settings on record: TR-FRET coactivator recruitment, THR beta-LBD 0.5 nM; for EC50: read-out: THRβ EC50. The procedure:
(§1) A time-resolved FRET (TR-FRET) assay was used to test representative compounds of the application.
(§2) THR-β Coactivator Peptide Recruitment Assay were conducted by using Invitrogen's LanthaScreen™ TR-FRET Thyroid Receptor beta Assay Kit (Catalog no. PV4686). Binding of an agonist to the nuclear receptor causes a subsequent binding of a coactivator peptide, resulting in fluorescence energy transfer from the labelled nuclear receptor to the proximal coactivator peptide, which reflects the binding affinity of the agonist and the nuclear receptor. The assay was conducted by following the manufacturer's instructions. Briefly, THR beta-LBD (the final concentration is 0.5 nM) was added to the 384-well assay plate containing test compounds, followed by addition of Fluorescein-SRC2-2 coactivator peptide and terbium (Tb)-labeled anti-GST antibody. The final concentration of THR beta-LBD, Fluorescein-SRC2-2 coactivator peptide and terbium (Tb)-labeled anti-GST antibody is 0.5 nM, 0.1 nM and 2 nM, respectively. After a gentle mix and incubation at room temperature for 2 h, the signal was read on the EnVision Multilabel Plate Reader at wavelengths of 520 nm and 495 nm. TR-FRET ratio was calculated by dividing the emission signal at 520 nm and the emission signal at 495 nm, and then was plotted against a sigmoidal dose response curve (four parameters, GraphPad™ Prism 8) to determine the EC50 value.
A general note: In TR-FRET formats the signal depends on donor and acceptor labels being close together.

Another test has as its target T2, THR alpha-LBD (Homo sapiens, UniProt P10827).
T2 construct: except that THR alpha-LBD of a final concentration 0.25 nM was used; purchased Invitrogen PV4687
Kind of test: THR-α Coactivator Peptide Recruitment Assay (LanthaScreen TR-FRET). Type of test: biochemical. The settings on record: TR-FRET coactivator recruitment, THR alpha-LBD 0.25 nM; for EC50: read-out: THRα EC50. The procedure:
as §1, §2
THR-α Coactivator Peptide Recruitment Assay were conducted by using Invitrogen's LanthaScreen™ TR-FRET Thyroid Receptor alpha Assay Kit (Catalog no. PV4687), following the same method described above except that THR alpha-LBD of a final concentration 0.25 nM was used.

SMILES strings stand for the structures.

T2 sequence (P10827 163-410 isoform P10827-2 limits assumed, other chains not shown): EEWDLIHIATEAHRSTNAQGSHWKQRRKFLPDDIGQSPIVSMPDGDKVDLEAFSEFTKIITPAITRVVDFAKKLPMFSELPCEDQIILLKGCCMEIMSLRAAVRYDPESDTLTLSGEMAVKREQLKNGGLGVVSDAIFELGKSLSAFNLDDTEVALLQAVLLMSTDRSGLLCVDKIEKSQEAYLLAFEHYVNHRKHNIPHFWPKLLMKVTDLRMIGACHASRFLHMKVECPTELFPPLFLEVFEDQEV

For `O=c1[nH]c(=O)n(-c2cc(Cl)c(Oc3ccc(O)c(S(=O)(=O)N[C@@H]4CC[C@@H](O)C4)c3)c(Cl)c2)nc1C(F)F` (racemic) [Compound 75, 5-(2,6-dichloro-4-(6-(difluoromethyl)-3,5-dioxo-4,5-dihydro-1,2,4-triazin-2(3H)-yl)phenoxy)-2-hydroxy-N-((1R,3R)-3-hydroxycyclopentyl)benzenesulfonamide], at THR beta-LBD, the “THRβ Emax” value is reported as “C (<75)” and the EC50 was 0.002 to 0.02 µM. In addition, at THR alpha-LBD, the “THRα Emax” value is on record as “B (40~85)” and the EC50 was in the range of 0.2 to 1 µM.

For `O=C(c1cc(Oc2c(Cl)cc(-n3nc(Cl)c(=O)[nH]c3=O)cc2Cl)ccc1O)N1C[C@H]2CC[C@@H]1C2` (single isomer, unassigned) [Compound 7], on THR beta-LBD, the “THRβ Emax” value is on record as “A (90~110)” and the EC50 was < 0.002 µM. On THR alpha-LBD, the “THRα Emax” value is recorded as “A (85~110)” and the half-maximal effective concentration (EC50) lay within 0.002 to 0.2 µM.

`O=C(c1cc(Oc2c(Cl)cc(-n3nc(Cl)c(=O)[nH]c3=O)cc2Cl)ccc1O)N1C[C@@H]2CC[C@H]1C2` (single isomer, unassigned) [Compound 8]: at THR beta-LBD, the “THRβ Emax” value is “B (75~90)” and the EC50 is < 0.002 µM. On THR alpha-LBD, the “THRα Emax” value was “B (40~85)” and the EC50 lay in the range of 0.002 to 0.2 µM.

`CN1C[C@@H](NS(=O)(=O)c2cc(Oc3c(Cl)cc(-n4nc(C(F)F)c(=O)[nH]c4=O)cc3Cl)ccc2O)CC1=O` (single isomer, unassigned) [Compound 34]: on THR beta-LBD, the “THRβ Emax” value is listed as “C (<75)” and the 50% effective concentration (EC50) lay within 0.02 to 0.1 µM. Moreover, on THR alpha-LBD, the “THRα Emax” value is given as “B (40~85)” and the EC50 was 0.2 to 1 µM.

`CN1C[C@H](NS(=O)(=O)c2cc(Oc3c(Cl)cc(-n4nc(C(F)F)c(=O)[nH]c4=O)cc3Cl)ccc2O)CC1=O` (single isomer, unassigned) [Compound 35]: on THR beta-LBD, the “THRβ Emax” value is recorded as “C (<75)” and the EC50 fell in the range of 0.02 to 0.1 µM. For the same compound, on THR alpha-LBD, the “THRα Emax” value is “B (40~85)” and the EC50 lay in the range of 0.2 to 1 µM.

As for `O=c1[nH]c(=O)n(-c2cc(Cl)c(Oc3cc(S(=O)(=O)N[C@@H]4CC[C@@H]4O)c(O)cn3)c(Cl)c2)nc1C(F)F` (stereo in doubt) [Compound 170, 2-[2,6-dichloro-4-[6-(difluoromethyl)-3,5-dioxo-1,2,4-triazin-2-yl]phenoxy]-5-hydroxy-N-[(1R,2S)-2-hydroxycyclobutyl]pyridine-4-sulfonamide], at THR beta-LBD, the “THRβ Emax” value was “C (<75)” and the EC50 was in the range of 0.02 to 0.1 µM. For the same compound, on THR alpha-LBD, the “THRα Emax” value is reported as “B (40~85)” and the half-maximal effective concentration (EC50) is 0.2 to 1 µM.

In the case of `O=c1[nH]c(=O)n(-c2cc(Cl)c(Oc3cc(S(=O)(=O)N[C@@H]4CC[C@H]4O)c(O)cn3)c(Cl)c2)nc1C(F)F` (stereo in doubt) [Compound 171, 2-[2,6-dichloro-4-[6-(difluoromethyl)-3,5-dioxo-1,2,4-triazin-2-yl]phenoxy]-5-hydroxy-N-[(1R,2R)-2-hydroxycyclobutyl]pyridine-4-sulfonamide], at THR beta-LBD, the “THRβ Emax” value is recorded as “C (<75)” and the EC50 lay in the range of 0.02 to 0.1 µM. For the same compound, on THR alpha-LBD, the “THRα Emax” value was “C (<40)” and the EC50 is 0.2 to 1 µM.

As for `O=C(NC1CCC1)c1cc(Oc2c(Cl)cc(-n3nc(C(F)F)c(=O)[nH]c3=O)cc2Cl)ccc1O` [Compound 1, N-cyclobutyl-5-[2,6-dichloro-4-[6-(difluoromethyl)-3,5-dioxo-1,2,4-triazin-2-yl]phenoxy]-2-hydroxy-benzamide], at THR beta-LBD, the “THRβ Emax” value is listed as “A (90~110)” and the EC50 lay within 0.002 to 0.02 µM. At THR alpha-LBD, the “THRα Emax” value is “B (40~85)” and the EC50 lay in the range of 0.002 to 0.2 µM.

On to `O=C(N[C@H]1C[C@H](O)C1)c1cc(Oc2c(Cl)cc(-n3nc(C(F)F)c(=O)[nH]c3=O)cc2Cl)ccc1O` [Compound 2, 5-(2,6-dichloro-4-(6-(difluoromethyl)-3,5-dioxo-4,5-dihydro-1,2,4-triazin-2(3H)-yl)phenoxy)-2-hydroxy-N-((1r,3r)-3-hydroxycyclobutyl)benzamide], for which, on THR beta-LBD, the “THRβ Emax” value is given as “B (75~90)” and the EC50 was 0.002 to 0.02 µM. In addition, at THR alpha-LBD, the “THRα Emax” value is “B (40~85)” and the concentration giving a half-maximal response (EC50) lay in the range of 0.2 to 1 µM.

For the compound `O=C(NC1CC(F)(F)C1)c1cc(Oc2c(Cl)cc(-n3nc(C(F)(F)F)c(=O)[nH]c3=O)cc2Cl)ccc1O` [Compound 3, 5-[2,6-dichloro-4-[3,5-dioxo-6-(trifluoromethyl)-1,2,4-triazin-2-yl]phenoxy]-N-(3,3-difluorocyclobutyl)-2-hydroxy-benzamide], at THR beta-LBD, the “THRβ Emax” value is given as “A (90~110)” and the EC50 lay within 0.02 to 0.1 µM. On THR alpha-LBD, the “THRα Emax” value was “B (40~85)” and the EC50 is > 1 µM.

Regarding `CC(C)(C)NC(=O)c1cc(Oc2c(Cl)cc(-n3nc(C(F)(F)F)c(=O)[nH]c3=O)cc2Cl)ccc1O` [Compound 4, N-(tert-butyl)-5-(2,6-dichloro-4-(3,5-dioxo-6-(trifluoromethyl)-4,5-dihydro-1,2,4-triazin-2(3H)-yl)phenoxy)-2-hydroxybenzamide], at THR beta-LBD, the “THRβ Emax” value is “A (90~110)” and the EC50 is 0.02 to 0.1 µM. In addition, at THR alpha-LBD, the “THRα Emax” value was “B (40~85)” and the concentration giving a half-maximal response (EC50) was 0.2 to 1 µM.

Consider `O=C(NC1CCC1)c1cc(Oc2c(Cl)cc(-n3nc(C(F)(F)F)c(=O)[nH]c3=O)cc2Cl)ccc1O` [Compound 5, N-cyclobutyl-5-(2,6-dichloro-4-(3,5-dioxo-6-(trifluoromethyl)-4,5-dihydro-1,2,4-triazin-2(3H)-yl)phenoxy)-2-hydroxybenzamide], for which, at THR beta-LBD, the “THRβ Emax” value is given as “A (90~110)” and the EC50 fell in the range of 0.02 to 0.1 µM. For the same compound, at THR alpha-LBD, the “THRα Emax” value was “B (40~85)” and the EC50 is > 1 µM.

As to `O=C(NC12CC3(F)CC(F)(CC(F)(C3)C1)C2)c1cc(Oc2c(Cl)cc(-n3nc(C(F)F)c(=O)[nH]c3=O)cc2Cl)ccc1O` [Compound 6, 5-(2,6-dichloro-4-(6-(difluoromethyl)-3,5-dioxo-4,5-dihydro-1,2,4-triazin-2 (3H)-yl)phenoxy)-2-hydroxy-N-(3,5,7-trifluoroadamantan-1-yl) benzamide], on THR beta-LBD, the “THRβ Emax” value is “B (75~90)” and the EC50 lay in the range of 0.02 to 0.1 µM. For the same compound, at THR alpha-LBD, the “THRα Emax” value is listed as “B (40~85)” and the EC50 was > 1 µM.

Take `O=c1[nH]c(=O)n(-c2cc(Cl)c(S(=O)(=O)c3ccc(O)c(C4CCC4)c3)c(Cl)c2)nc1C(F)(F)F` [Compound 9, 2-[3,5-dichloro-4-(3-cyclobutyl-4-hydroxy-phenyl)sulfonyl-phenyl]-6-(trifluoromethyl)-1,2,4-triazine-3,5-dione]: at THR beta-LBD, the “THRβ Emax” value is recorded as “A (90~110)” and the concentration for a half-maximal effect (EC50) is > 0.1 µM. Moreover, at THR alpha-LBD, the “THRα Emax” value is “B (40~85)” and the EC50 fell in the range of 0.2 to 1 µM.

In the case of `O=C(NC1CCC1)c1cc(Oc2c(Cl)cc(-n3nc(C(F)(F)F)c(=O)[nH]c3=O)cc2Cl)c(F)cc1O` [Compound 10, N-cyclobutyl-5-[2,6-dichloro-4-[3,5-dioxo-6-(trifluoromethyl)-1,2,4-triazin-2-yl]phenoxy]-4-fluoro-2-hydroxy-benzamide], at THR beta-LBD, the “THRβ Emax” value was “B (75~90)” and the EC50 is > 0.1 µM. Also, at THR alpha-LBD, the “THRα Emax” value is “C (<40)” and the EC50 was > 1 µM.

For `O=C(NC1CCC1)c1cc(Oc2c(Cl)cc(-n3nc(C(F)F)c(=O)[nH]c3=O)cc2Cl)c(F)cc1O` [Compound 11, N-cyclobutyl-5-[2,6-dichloro-4-[6-(difluoromethyl)-3,5-dioxo-1,2,4-triazin-2-yl]phenoxy]-4-fluoro-2-hydroxy-benzamide], on THR beta-LBD, the “THRβ Emax” value is reported as “A (90~110)” and the EC50 was > 0.1 µM. Further, at THR alpha-LBD, the “THRα Emax” value is “B (40~85)” and the EC50 was > 1 µM.

With `O=c1[nH]c(=O)n(-c2cc(Cl)c(Oc3ccc(O)c(S(=O)(=O)NC4CCC4)c3)c(Cl)c2)nc1C(F)F` [Compound 12, N-cyclobutyl-5-[2,6-dichloro-4-[6-(difluoromethyl)-3,5-dioxo-1,2,4-triazin-2-yl]phenoxy]-2-hydroxy-benzenesulfonamide], at THR beta-LBD, the “THRβ Emax” value is recorded as “A (90~110)” and the 50% effective concentration (EC50) is < 0.002 µM. Moreover, at THR alpha-LBD, the “THRα Emax” value is reported as “A (85~110)” and the EC50 is < 0.002 µM.

As usually defined, the EC50 is the midpoint of the concentration-response curve.
